Legend:
[1] = tested on: RAW 264.7 mouse macrophages induced with LPS; test: Cytokine mRNA expression in LPS-induced RAW 264.7 macrophages; assay type: cell-based; details: 10 and 1 μM, 48 h, preliminary data
EAE mice = test: Mechanical withdrawal thresholds; assay type: in vivo, mouse (C57BL/6, female); details: day 24 post-EAE induction; compound 5 and modafinil 10 mg/kg, Solu-Medrol 50 mg/kg p.o. days 1–10

## NC(=O)C[S+]([O-])C(c1ccccc1)c1ccccc1 (racemic) [(±)-modafinil]
[1]
  mRNA expression levels of TNF-α, IL-1β and IL-4Rα: minimal ability to modulate
EAE mice
  Mechanical withdrawal threshold, front left paw (von Frey): decreased reflex thresholds

Source: publication PMC9365315 (ACS chemical neuroscience, 2022)
